Data published in publication PMC6805442, “Discovery of low-molecular weight anti-PD-L1 peptides for cancer immunotherapy” (Journal for Immunotherapy of Cancer, 2019).
Where two headings read alike, the source gives them in different places. No end group written: not given here.

What was measured:
[1] = molecular target: T1, human PD-1/PD-L1 interaction (hPD-L1 protein) (Homo sapiens, UniProt Q9NZQ7); assay: Blockade of the human PD-1/PD-L1 interaction, plate coated with human PD-L1 protein; format: biochemical; conditions: for Block Efficiency: hPD-L1 protein, blocking profile (Fig. 2d, e)
T1 construct: G&P Biosciences, human PD-L1 ECD, cat# FCL0784B; purchased G&P Biosciences FCL0784B (PD-L1)
Description: (§1) Ninety-six-well plates were coated with 100 ng of PD-L1 protein (G&P Biosciences, human PD-L1 ECD, cat# FCL0784B. mouse PD-L1, cat# FCL3502B) and later blocked with 2% BSA for 2 h at room temperature. Various concentrations of peptides were loaded into the wells and incubated for 1 h at room temperature. […] Streptavidin-HRP (R&D systems) and chromogenic substrate were added into the wells. OD450 was then recorded and referenced to OD540.
(§2) We next examined the blocking efficiency of the anti-PD-L1 peptides at 10 μM (Fig. 2c). […] We also determined IC50 of each peptide using recombinant human PD-L1 protein and DU-145 cancer cells.

[2] = molecular target: T2, PD-1/PD-L1 interaction on mouse cancer cell line 4 T1 (Mus musculus, UniProt Q9EP73); assay: Blockade of the PD-1/PD-L1 interaction on 4T1 cells; format: cell-based; conditions: for Block Efficiency: blocking profile (Fig. 2h, j)
T2 construct: endogenous in cells; host or cells: 4T1

[3] = molecular target: T3, mouse PD-1/PD-L1 interaction (mPD-L1 protein) (Mus musculus, UniProt Q9EP73); assay: Blockade of the mouse PD-1/PD-L1 interaction, mouse PD-L1 protein; format: biochemical; conditions: for Block Efficiency: mPD-L1 protein, blocking profile (Fig. 2h, i)
T3 construct: purchased G&P Biosciences FCL3502B (PD-L1)
Description: as §1
By contrast, the blocking efficiency of the anti-mouse PD-L1 antibody was 92%.

[4] = molecular target: T4, PD-1/PD-L1 interaction on DU-145 cells (Homo sapiens, UniProt Q9NZQ7); assay: Blockade of the PD-1/PD-L1 interaction, plate coated with DU-145 cells; format: cell-based; conditions: for Block Efficiency: DU145 cancer cells, blocking profile (Fig. 2d, f)
T4 construct: when the plate was coated with DU-145 cells; endogenous in cells; host or cells: DU-145
Description: as §1, §2

[5] = molecular target: human PD-L1/CD80 interaction (Homo sapiens, UniProt Q9NZQ7); assay: Blockade of the CD80/PD-L1 interaction; format: biochemical; conditions: for blocking efficiency, CD80/PD-L1: 10 μM
Excerpt: The CD80/PD-L1 interaction specifically restrains T cell activation, and blockade of the interaction could enhance the anti-tumor activity of the T cells. […] We, therefore, investigated whether the anti-PD-L1 peptides block the CD80/PD-L1 interaction.
Supplementary file 40425_2019_705_MOESM1_ESM.png: Additional file 1: Figure S1. Blockade of the PD-L1/CD80 interaction by anti-PD-L1 peptides and antibody. […] IC50 and blocking efficiency of CLP002 (b) and CLP003 (c) against the human PD-L1/CD80 interaction. Results are represented as the mean ± SD (n = 3).

[6] = molecular target: T5, recombinant human PD-L1 ECD protein (Homo sapiens, UniProt Q9NZQ7); assay: SPR binding to human PD-L1; conditions: for kon: read-out: Ka
T5 construct: the recombinant human PD-L1 ECD protein were evaluated using SPR; purchased G&P Biosciences FCL0784B
Description: Binding affinities of the PD-L1 specific peptides for human PD-L1 protein were determined by SPR (BI4500, Biosensing Instrument). PD-L1 protein was diluted to 10 μg/mL with sodium acetate buffer (pH 5.0, GE Healthcare, PA) and covalently coated onto a CM5 sensor chip (CM Dextran Sensor Chip, Biosensing Instrument) using the standard Amine Coupling Kit (GE Healthcare, PA). Approximately 6500 RU of PD-L1 protein were immobilized onto the chip. A second channel was used as a reference. HBS-EP+ buffer (GE Healthcare) was employed at a flow rate of 60 μL/min. A series of concentrations of each peptide (15, 30, 60, 125, 250, 500, 1000, 5000 and 10,000 nM) were prepared in HBS-EP+ running buffer to obtain the equilibrium dissociation constant (KD) values of the peptides. The CM5 sensor chip was regenerated with 10 mM NaOH for 20 s. The results were analyzed using the software of Bi data analysis software.
Binding affinities of the discovered peptides against the recombinant human PD-L1 ECD protein were evaluated using SPR. The PD-L1 protein was immobilized on a CM5 golden chip by the direct amine coupling method. […] Even though the binding affinity of peptides are generally lower than that of antibodies, the very high affinity of antibodies may result in on-target, off-tumor toxicity in healthy tissues that express low levels of PD-L1. In a recent study, scientists constructed several chimeric antigen receptor (CAR) T cells with different affinities to ICAM-1. […] CAR-T cells with nanomolar affinity lyse healthy cells that express a low level of ICAM-1. By contrast, CAR-T cells with micromolar affinity only attack tumor cells with high levels of ICAM-1 but not healthy cells with low levels of ICAM-1, leading to less toxicity.

T4 sequence (Q9NZQ7 19-290): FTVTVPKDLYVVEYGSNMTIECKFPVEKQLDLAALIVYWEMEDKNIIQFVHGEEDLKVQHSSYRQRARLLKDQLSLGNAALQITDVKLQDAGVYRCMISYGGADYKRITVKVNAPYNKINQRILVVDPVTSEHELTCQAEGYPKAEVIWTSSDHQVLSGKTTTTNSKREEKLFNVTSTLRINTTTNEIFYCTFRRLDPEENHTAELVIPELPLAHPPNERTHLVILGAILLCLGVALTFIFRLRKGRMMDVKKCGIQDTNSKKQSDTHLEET
T3 sequence (Q9EP73 19-239 limits assumed): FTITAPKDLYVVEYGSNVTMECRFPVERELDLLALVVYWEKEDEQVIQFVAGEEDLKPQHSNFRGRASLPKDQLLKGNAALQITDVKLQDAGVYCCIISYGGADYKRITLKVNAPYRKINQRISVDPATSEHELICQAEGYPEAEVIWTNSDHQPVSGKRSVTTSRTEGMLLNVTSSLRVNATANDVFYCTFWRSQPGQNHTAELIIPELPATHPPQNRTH
T1 sequence (Q9NZQ7 19-238 limits assumed): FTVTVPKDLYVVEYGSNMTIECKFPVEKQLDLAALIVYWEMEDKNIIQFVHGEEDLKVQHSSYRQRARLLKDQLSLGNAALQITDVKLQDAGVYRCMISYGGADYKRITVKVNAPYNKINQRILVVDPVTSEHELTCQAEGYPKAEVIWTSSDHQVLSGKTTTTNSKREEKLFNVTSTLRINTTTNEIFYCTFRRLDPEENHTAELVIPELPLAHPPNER
T5 sequence (Q9NZQ7 19-238 limits assumed): as above
Sequence of human PD-L1/CD80 interaction (Q9NZQ7 19-238 limits assumed): as above
T2 sequence (Q9EP73 19-290): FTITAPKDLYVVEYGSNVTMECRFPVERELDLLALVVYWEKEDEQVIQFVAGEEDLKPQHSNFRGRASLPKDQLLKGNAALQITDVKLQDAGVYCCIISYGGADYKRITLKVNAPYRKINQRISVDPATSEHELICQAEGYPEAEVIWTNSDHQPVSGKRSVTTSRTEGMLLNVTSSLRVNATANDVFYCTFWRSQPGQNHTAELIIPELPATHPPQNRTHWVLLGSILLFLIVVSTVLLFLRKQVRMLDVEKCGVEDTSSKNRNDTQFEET

Row | Sequence | IC50 [1] [µM] | Block Efficiency [1] [%] | IC50 [2] [µM] | Block Efficiency ([2]; 4T1 cancer cells) [%] | IC50 [3] [µM] | blocking efficiency ([3]; 10 μM, mouse PD-L1 protein (Fig. 2g)) [%] | Block Efficiency [3] [%] | IC50 [4] [µM] | Block Efficiency [4] [%] | IC50 [5] [µM] | blocking efficiency, CD80/PD-L1 [5] | Kd ([6]; SPR, human PD-L1 immobilized on CM5 chip (~6500 RU), HBS-EP+, 60 μL/min, peptide 15-10,000 nM, mean ± SD (n = 3)) [µM] | kon [6] [M⁻¹ s⁻¹] | IC50 ([2]; 4T1 cancer cells) [µM] | IC50 ([4]; DU145 cancer cells coated on the plate) [µM]
1 | WHRSYYTWNLNT [CLP002] | 2.17 | 85 | 2.44 | 61 | 1.91 | 71 | 68 | 1.43 | 80 | 2.45 | ~48% | 0.366 | 4520 ± 666 | – | –
2 | DYHDPSLPTLRK [CLP004] | – | 52 | – | 34 | – | – | 48 | – | 60 | – | ~27% | – | 5140 ± 390 | 0.73 | 0.2
3 | HYPFRPHANQAS [CLP001] | – | 0 | – | 35 | – | – | 34 | – | 0 | – | approximately 17% | – | 5190 ± 212 | 0.91 | –
4 | WHFSYNWRWLPP [CLP003] | – | – | – | – | – | – | – | – | – | – | – | – | 22600 | – | –
